Entries after “also recorded” stand apart in the source; their conditions may differ. Read-outs that look alike come from different tables or passages of the source.
Legend:
[1] = test system: Mycobacterium tuberculosis H37Rv; test: microbe, parasite or virus in culture; assay type: cell-based; conditions: for IC90: read-out: Anti-tubercular activity M. tuberculosis (H37Rv) IC90; for IC50: SD in brackets, read-out: Anti-tubercular activity M. tuberculosis (H37Rv) IC50 (SD)
[2] = HepG2 cytotoxicity screening (CellTiter-Glo); assay type: cell-based; conditions: human, HepG2 cells; 50% decrease in viable cells after 72 h
Description: (§1) The cytotoxicity of compounds towards eukaryotic cells was determined using human liver cells (HepG2), non-tumorigenic human mammary epithelial cells (MCF-10A), and breast cancer cells (MDA-MB-468).
HepG2 cells were incubated with compounds for 72 h in medium containing either glucose or galactose, and cell viability was measured. The IC50 was determined as the concentration of compound causing a 50% decrease in viable cells after 72 h. Compounds were prepared as 10-point three-fold serial dilutions in DMSO. The highest concentration of compound tested was 100 µM where compounds were soluble in DMSO at 10 mM. […] HepG2 cells were cultured in complete DMEM (recipe: DMEM medium, 1X penicillin-streptomycin solution, 2 mM Corning Glutogro supplement, 1 mM sodium pyruvate, 10% v/v Fetal Bovine Serum), inoculated into 384-well assay plates and incubated for 24 h at 37 °C, 5% CO2. Compounds were added and cells were cultured for a further 72 h. The final DMSO concentration was 1%. Cell viability was determined using the CellTiter-Glo® Luminescent Cell Viability Assay (Promega, Madison, WI, USA) and measuring relative luminescent units (RLU). The dose-response curve was fitted using the Levenberg–Marquardt algorithm. The IC50 was defined as the compound concentration that produced a 50% decrease in viable cells. Each run included staurosporine as a control.

[3] = MCF-10A MTT cytotoxicity screening; assay type: cell-based; conditions: human, MCF-10A normal breast (mammary epithelial) cells, quadruplicate, read-out: Cytotoxicity MCF10A normal breast cells IC50
Description: as §1
(§2) Cells were purchased from the American Type Culture Collection (Manassas, VA, USA). MDA-468 cells were grown in RPMI-1640 medium with 10% (v/v) heat-inactivated foetal calf serum and L-glutamine (2 mM) without phenol red. MCF-10A cells were grown in Dulbecco’s modified Eagle’s medium/ Ham’s F-12 medium (1:1) with 5% (v/v) heat-inactivated foetal calf serum, epidermal growth factor (20 ng/mL), insulin (10 µg/mL), and hydrocortisone (500 ng/mL). Cells were maintained at 37 °C, 5% CO2 / 95% air with 100% humidity and passaged every 2–3 days using trypsin EDTA solution (0.25% w/v). Adhered cells at sub confluence were harvested for experimental use. The medium was aspirated and discarded, and trypsin-EDTA solution (1% w/v, 1 mL) was added to the cells. After 30 s this was aspirated and immediately replaced by a further 1 mL of trypsin-EDTA solution. The cells were incubated at 37 °C for approximately 5 min or until the cells were visibly non-adherent. The resultant cell suspension was placed in a 25 mL sterile universal container with 10 mL of fresh medium followed by centrifugation (3 min, 3000 rpm, and 4 °C). Old medium was aspirated and replaced with 10 mL of fresh medium. To determine the density of cells in suspension, an aliquot (100 µL) was added to a trypan-blue solution (0.4% w/v, 100 µL), and the number of viable cells were determined using a Neubauer haemocytometer. The cell suspension was diluted with relevant medium to give a cell count of 2 × 10^3 cells per mL. Aliquots (100 µL) were dispensed into sterile 96-well microtitre flat-bottomed plates. For the MDA-468 and MCF-10A cell lines the plates were incubated at 37 °C, 5% CO2/95% air with 100% humidity for 24 h prior to the addition of test compounds. Test compounds were added within 30 min into the wells from a 100 mM stock solution in DMSO and serially diluted to give final concentrations of […], 0.01, 0.003, 0.001, and 0.0003 µM. […] The cells were allowed to grow for 96 h at 5%, CO2, 37 °C to give 80–90% confluence in the control wells, after which 50 µL of MTT (3-[4,5 dimethylthiazol-2-yl]-2,5-diphenyl tetrazolium bromide, 2 mg mL^−1) in sterile phosphate buffer was added to each well and the plates were further incubated for 2 h. All medium was aspirated, and the formazan precipitate generated by viable cells was solubilised by 150 µL of DMSO. All the plates were vortexed, and the absorbance at 540 nm was determined using a Molecular Devices SpectraMax M5 plate reader. Results were expressed as a percentage of the control value versus the negative logarithm of the molar drug concentration range using Graph Pad Prism. Relative toxicities of each compound within each cell line were expressed as 50% of growth inhibition (IC50). All determinations were carried out in quadruplicate.

[4] = MDA-468 MTT cytotoxicity screening; assay type: cell-based; conditions: human, MDA-MB-468 (MDA468) breast cancer cells, quadruplicate
Description: as §1, §2

[5] = test system: MDA468 breast cancer cells; design: method as in PMID 29332599; conditions: previously reported value ref 12; read-out: Cytotoxicity MDA468 breast cancer cells IC50; cited from earlier work
[6] = Mycobacterium tuberculosis, H37RV, 120 h, 5-day incubation, […]

SMILES	IC90 [1, 6] [µM]	IC50 [1, 6] [µM]	IC50 at 72 h [2] [µM]	IC50 at 96 h [3] [µM]	IC50 at 96 h [4] [µM]	further results
O=C(/C=C/c1cccnc1)c1ccc2ccc3cccc4ccc1c2c34 [Compound 20, (E)-1-(pyren-1-yl)-3-(pyridin-3-yl)prop-2-en-1-one]	22	8.8	1.8	2	4	–
COc1cccc(C(=O)/C=C/c2ccc(Br)cc2)c1 [Compound 25, (E)-3-(4-bromophenyl)-1-(3-methoxyphenyl)prop-2-en-1-one]	28	22	14	–	–	–
COc1cccc(C(=O)/C=C/c2ccc(Cl)cc2)c1 [Compound 26, (E)-3-(4-chlorophenyl)-1-(3-methoxyphenyl)prop-2-en-1-one]	≥ 28	20	13	–	–	IC90 ([1]; 5-day incubation, […]): 28 µM
Oc1ccccc1C1=NNC(c2ccc(Br)cc2)C1 (stereo not drawn) [Compound 31, 2-(5-(4-bromophenyl)-4,5-dihydro-1H-pyrazol-3-yl)phenol]	34	23	24.5	–	–	–
O=C(/C=C/c1cn(-c2ccccc2)nc1-c1ccccc1)c1ccccc1O [Compound 27, (E)-3-(1,3-diphenyl-1H-pyrazol-4-yl)-1-(2-hydroxyphenyl)prop-2-en-1-one]	97 to 100	> 100	74	–	–	IC90 ([1]; 5-day incubation, […]): > 100 µM
COc1cc(C(=O)/C=C/c2ccc3c(c2)OCO3)cc(OC)c1OC [Compound 2]	–	–	–	2.3	–	Anti-tubercular activity (in words) [1]: did not exhibit anti-tubercular activity; also recorded: no antitubercular activity; IC90 ([1]; Mycobacterium tuberculosis, H37RV, 120 h): > 100 µM; IC50 [5]: 0.006 µM
Oc1ccccc1C1=NNC(c2cn(-c3ccccc3)nc2-c2ccccc2)C1 (stereo not drawn) [Compound 29, 2-(1′,3′-diphenyl-3,4-dihydro-1′H,2H-[3,4′-bipyrazol]-5-yl)phenol]	> 25	11	46.5	–	–	Fold more active than parent compound 27 (IC50 H37Rv) ([1]; 29 versus 27): 10 fold
O=C(/C=C/c1cccnc1)c1ccccc1O [Compound 18, (E)-1-(2-hydroxyphenyl)-3-(pyridin-3-yl)prop-2-en-1-one]	> 100	> 100	22	16	8	Anti-tubercular activity (in words) ([1]; M. tuberculosis H37Rv): abolished
O=C(/C=C/c1ccc(Cl)cc1)c1ccccc1O [Compound 23, (E)-3-(4-chlorophenyl)-1-(2-hydroxyphenyl)prop-2-en-1-one]	97 to 100	–	25	–	–	IC90 ([1]; 5-day incubation, […]): > 100 µM
O=C(/C=C/c1cccnc1)c1ccc(Cl)c(Cl)c1 [Compound 14, (E)-1-(3,4-dichlorophenyl)-3-(pyridin-3-yl)prop-2-en-1-one]	28	12	2.5	–	–	–
COc1ccc(/C=C\c2cc(OC)c(OC)c(OC)c2)cc1O [Combretastatin A-4, reference compound]	–	–	–	0.0016	0.003	–
COc1cc(C(=O)/C=C/c2cccnc2)cc(OC)c1OC [Compound 16, (E)-3-(pyridin-3-yl)-1-(3,4,5-trimethoxyphenyl)prop-2-en-1-one]	59	19	2	1.5	0.7	–
O=C(/C=C/c1ccc(Br)cc1)c1ccccc1O [Compound 24, (E)-3-(4-bromophenyl)-1-(2-hydroxyphenyl)prop-2-en-1-one]	97	> 100	14	–	–	–
Oc1ccccc1C1=NNC(c2ccc(Cl)cc2)C1 (stereo not drawn) [Compound 30, 2-(5-(4-chlorophenyl)-4,5-dihydro-1H-pyrazol-3-yl)phenol]	–	23	19.5	–	–	–
O=C(/C=C/c1cccnc1)c1ccc(-c2ccccc2)cc1 [Compound 21, (E)-1-([1,1′-biphenyl]-4-yl)-3-(pyridin-3-yl)prop-2-en-1-one]	8.9	3.9	4.5	7	3.5	–
O=C(/C=C/c1cccc(Br)c1)c1cccnc1 [Compound 28, (E)-3-(3-bromophenyl)-1-(pyridin-3-yl)prop-2-en-1-one]	65	–	–	5.2	0.7	–
O=C(/C=C/c1cccnc1)c1ccc(Cl)cc1 [Compound 15, (E)-1-(4-chlorophenyl)-3-(pyridin-3-yl)prop-2-en-1-one]	77	24	11	–	–	–
O=C(/C=C/c1cccnc1)c1c2ccccc2cc2ccccc12 [Compound 19]	48	10	2.7	4.4	0.3	–
COc1ccccc1C(=O)/C=C/c1ccc(Br)cc1 [Compound 22]	59	44.5	13	–	–	–
CO[C@H]1/C=C/O[C@@]2(C)Oc3c(C)c(O)c4c(O)c(c(/C=N/N5CCN(C)CC5)c(O)c4c3C2=O)NC(=O)/C(C)=C\C=C\[C@H](C)[C@H](O)[C@@H](C)[C@@H](O)[C@@H](C)[C@H](OC(C)=O)[C@@H]1C [Rifampicin, reference compound]	0.0087	0.0044	–	–	–	–
O=C(/C=C/c1cccnc1)c1ccc(O)cc1 [Compound 17]	> 100	> 100	> 100	> 100	30	Anti-tubercular activity (in words) ([1]; M. tuberculosis H37Rv): abolished

— article PMC11478287, “Design and Synthesis of Pyridyl and 2-Hydroxyphenyl Chalcones with Antitubercular Activity” (Molecules, 2024)
